# Results from patent US10508120B2, “TYK2 inhibitors and uses thereof” (Nimbus Lakshmi, Inc., priority 2017, dated 2019).
# pKd: −log10 of the molar value. Where two headings read alike, the source gives them in different places.
# Columns and labels:
# [1] = target: human TYK2 (JH2domain-pseudokinase) (Homo sapiens (Human), UniProt P29597); experiment: TYK2 JH2 Domain Binding Assay (KINOMEscan)
# Summary of the method: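 Competition binding of a DNA-tagged fusion of human TYK2 JH2 pseudokinase (G556–D888) with NFkB DNA-binding domain, from HEK293 extracts (<0.1 nM final), against immobilised ligand beads; 1 h shaking at room temperature, 0.9% DMSO. Bound kinase quantified by qPCR.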
# Tyk2 kinase domain (DH1) = Tyk2 kinase domain (DH1) (Homo sapiens (Human), UniProt P29597); experiment: Tyk2 Radioactive Kinase Assay; format: biochemical; details: for inhibition at 10 µM: read-out: Tyk2 JH1% Inhibition @ 10 μM
# Chain of Tyk2 kinase domain (DH1) (P29597 897-1176): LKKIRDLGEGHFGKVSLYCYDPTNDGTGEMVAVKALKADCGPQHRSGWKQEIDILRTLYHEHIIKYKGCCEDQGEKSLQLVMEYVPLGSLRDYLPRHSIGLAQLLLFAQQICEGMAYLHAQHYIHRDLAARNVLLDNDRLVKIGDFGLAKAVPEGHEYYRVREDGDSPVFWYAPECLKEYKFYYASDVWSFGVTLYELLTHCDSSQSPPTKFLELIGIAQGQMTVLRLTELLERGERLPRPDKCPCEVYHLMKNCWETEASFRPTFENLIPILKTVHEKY
# Summary of the method: (§1)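 Read-out is percent inhibition from a radioactive kinase reaction, measured with compound at 10 μM.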
# JAK2 kinase domain (JH1) = JAK2 kinase domain (JH1) (Homo sapiens (Human), UniProt O60674); experiment: JAK2 Radioactive Kinase Assay; format: biochemical; details: for inhibition at 10 µM: read-out: JAK2 JH1% Inhibition @ 10 μM
# Chain of JAK2 kinase domain (JH1) (O60674 849-1124): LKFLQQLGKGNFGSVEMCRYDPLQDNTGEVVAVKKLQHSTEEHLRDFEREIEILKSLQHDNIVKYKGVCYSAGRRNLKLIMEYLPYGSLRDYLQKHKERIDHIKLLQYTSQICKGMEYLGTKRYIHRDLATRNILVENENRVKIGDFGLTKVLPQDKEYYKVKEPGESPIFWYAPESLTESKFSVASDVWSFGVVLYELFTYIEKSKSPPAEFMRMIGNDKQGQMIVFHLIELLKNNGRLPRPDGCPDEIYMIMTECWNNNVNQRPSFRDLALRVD
# Summary of the method: as §1
# Chain of human TYK2 (JH2domain-pseudokinase) (P29597 556-888): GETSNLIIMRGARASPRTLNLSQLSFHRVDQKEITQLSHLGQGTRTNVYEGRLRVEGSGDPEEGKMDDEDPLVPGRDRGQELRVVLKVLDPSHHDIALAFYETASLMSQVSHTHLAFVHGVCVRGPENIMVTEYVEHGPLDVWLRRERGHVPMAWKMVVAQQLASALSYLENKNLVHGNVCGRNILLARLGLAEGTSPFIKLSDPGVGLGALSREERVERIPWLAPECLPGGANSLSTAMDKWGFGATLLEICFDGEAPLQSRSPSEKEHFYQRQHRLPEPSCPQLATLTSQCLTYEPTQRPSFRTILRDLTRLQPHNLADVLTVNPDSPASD
Compound,pKd [1],"inhibition at 10 µM (Tyk2 kinase domain (DH1); 10 μM compound, 10 μM ATP)","inhibition at 10 µM (JAK2 kinase domain (JH1); 10 μM compound, 10 μM ATP)","Tyk2 JH1% Inhibition @ 10 μM (Tyk2 kinase domain (DH1); 10 μM compound, 10 μM ATP)","JAK2 JH1% Inhibition @ 10 μM (JAK2 kinase domain (JH1); 10 μM compound, 10 μM ATP)","inhibition at 10 µM (Tyk2 kinase domain (DH1); compound at 10 μM, ATP 10 μM)","inhibition at 10 µM (JAK2 kinase domain (JH1); compound at 10 μM, ATP 10 μM)"
"CNc1cc(-c2cn(CCN3CCN(C)CC3)c3ncccc23)nc2c(C(=O)N[C@H]3CC[C@@H]3O)cnn12 (stereo in doubt) [I-852, N-(2-hydroxycyclobutyl)-7-(methylamino)-5-(1-(2-(4-methylpiperazin-1-yl)ethyl)-1H-pyrrolo[2,3-b]pyridin-3-yl)pyrazolo[1,5-a]pyrimidine-3-carboxamide]",> 9.70,< 50%,< 50%,–,–,–,–
"CNc1cc(-c2cn(CCN3CCN(C)CC3)c3ncccc23)nc2c(C(=O)N[C@H]3CC[C@@H]3OC)cnn12 (stereo in doubt) [I-885, N-(2-methoxycyclobutyl)-7-(methylamino)-5-(1-(2-(4-methylpiperazin-1-yl)ethyl)-1H-pyrrolo[2,3-b]pyridine-3-yl)pyrazolo[1,5-a]pyrimidine-3-carboxamide]",> 9.70,< 50%,< 50%,–,–,–,–
"CNc1cc(Nc2cccnc2OC)nc2c(C(=O)N[C@H]3CC[C@@]3(C)O)cnn12 (stereo in doubt) [I-911, N-(2-hydroxy-2-methylcyclobutyl)-5-((2-methoxypyridin-3-yl)amino)-7-(methylamino)pyrazolo[1,5-a]pyrimidine-3-carboxamide]",8.00 to 9.00,–,–,A (percent inhibition at 10 μM lower than 50),A (percent inhibition at 10 μM lower than 50),–,–
"CNc1cc(Nc2cccn([C@H]3C[C@@H]3F)c2=O)nc2c(C(=O)NCC3(CO)CC3)cnn12 (stereo in doubt) [I-1061, 5-((1-(2-fluorocyclopropyl)-2-oxo-1,2-dihydropyridin-3-yl)amino)-N-((1-(hydroxymethyl)cyclopropyl)methyl)-7-(methylamino)pyrazolo[1,5-a]pyrimidine-3-carboxamide]",> 9.70,< 50%,< 50%,–,–,–,–
"CNC(=O)c1occc1Nc1cc(NC)n2ncc(C(=O)N[C@H]3CC[C@@H]3OC)c2n1 (stereo in doubt) [I-1111, N-(2-methoxycyclobutyl)-7-(methylamino)-5-((2-(methylcarbamoyl)furan-3-yl)amino)pyrazolo[1,5-a]pyrimidine-3-carboxamide]",> 9.70,< 50%,< 50%,–,–,–,–
"CNc1cc(Nc2cccn(C3CCCCC3)c2=O)nc2c(C(=O)N[C@H]3COC[C@H]3O)cnn12 (stereo in doubt) [I-1112, 5-((1-cyclohexyl-2-oxo-1,2-dihydropyridin-3-yl)amino)-N-(4-hydroxytetrahydrofuran-3-yl)-7-(methylamino)pyrazolo[1,5-a]pyrimidine-3-carboxamide]",9.00 to 9.70,< 50%,< 50%,–,–,–,–
"CNc1cc(Nc2cccn(C(C)C)c2=O)nc2c(C(=O)N[C@H]3CC[C@@]3(C)O)cnn12 (stereo in doubt) [I-1116, N-(2-hydroxy-2-methylcyclobutyl)-5-((1-isopropyl-2-oxo-1,2-dihydropyridin-3-yl)amino)-7-(methylamino)pyrazolo[1,5-a]pyrimidine-3-carboxamide]",< 8.00,< 50%,< 50%,–,–,–,–
CNc1cc(Nc2cccn(-c3ccc(N4CCOCC4)cc3)c2=O)nc2c(C(N)=O)cnn12 [I-10],> 9.70,–,–,–,–,< 50%,< 50%
CNc1cc(Nc2cnn(C)c2)nc2c(C(N)=O)cnn12 [I-11],8.00 to 9.00,–,–,–,–,< 50%,< 50%
CNc1cc(Nc2cccn(C3CCCCC3)c2=O)nc2c(C(N)=O)cnn12 [I-12],8.00 to 9.00,–,–,–,–,< 50%,< 50%
CNc1cc(Nc2cccn(-c3nccs3)c2=O)nc2c(C(N)=O)cnn12 [I-15],9.00 to 9.70,–,–,–,–,< 50%,< 50%
CNc1cc(Nc2cccc(N3CCOCC3)c2Cl)nc2c(C(N)=O)cnn12 [I-18],> 9.70,–,–,–,–,< 50%,< 50%
CCOc1ccc(-n2cccc(Nc3cc(NC)n4ncc(C(N)=O)c4n3)c2=O)nn1 [I-19],8.00 to 9.00,–,–,–,–,< 50%,< 50%
CNc1cc(Nc2cccn(-c3ccn(C4CC4)n3)c2=O)nc2c(C(N)=O)cnn12 [I-20],> 9.70,–,–,–,–,< 50%,< 50%
Cc1cc(C)cc(Nc2cc(N)n3ncc(C(N)=O)c3n2)c1 [I-21],9.00 to 9.70,–,–,–,–,< 50%,70 to 90%
NC(=O)c1cnn2c(N)cc(Nc3cccc(N4CCOCC4)c3Cl)nc12 [I-22],9.00 to 9.70,–,–,–,–,< 50%,70 to 90%
NC(=O)c1cnn2c(N)cc(Nc3cccc(N4CCCC4)c3Cl)nc12 [I-23],8.00 to 9.00,–,–,–,–,< 50%,70 to 90%
CNc1cc(Nc2cccnc2OC)nc2c(C(N)=O)cnn12 [I-24],> 9.70,–,–,–,–,< 50%,< 50%
NC(=O)c1cnn2c(N)cc(Nc3cccn(-c4ccc(F)cc4)c3=O)nc12 [I-25],9.00 to 9.70,–,–,–,–,< 50%,< 50%
CNc1cc(Nc2cc(C)cn(-c3ccn(C)n3)c2=O)nc2c(C(N)=O)cnn12 [I-26],> 9.70,–,–,–,–,< 50%,< 50%
CNc1cc(Nc2cc(C)nc(N3CCCC3)c2)nc2c(C(N)=O)cnn12 [I-27],8.00 to 9.00,–,–,–,–,< 50%,< 50%

Compound,pKd [1],"inhibition at 10 µM (Tyk2 kinase domain (DH1); 10 μM compound, 10 μM ATP)","inhibition at 10 µM (JAK2 kinase domain (JH1); 10 μM compound, 10 μM ATP)","Tyk2 JH1% Inhibition @ 10 μM (Tyk2 kinase domain (DH1); 10 μM compound, 10 μM ATP)","JAK2 JH1% Inhibition @ 10 μM (JAK2 kinase domain (JH1); 10 μM compound, 10 μM ATP)","inhibition at 10 µM (Tyk2 kinase domain (DH1); compound at 10 μM, ATP 10 μM)","inhibition at 10 µM (JAK2 kinase domain (JH1); compound at 10 μM, ATP 10 μM)"
Cc1cc(Nc2cc(N)n3ncc(C(N)=O)c3n2)cc(N2CCCC2)n1 [I-28],< 8.00,–,–,–,–,< 50%,< 50%
CNc1cc(Nc2cc(C)nc(N3CC[C@@H](OC)C3)c2)nc2c(C(N)=O)cnn12 [I-29],8.00 to 9.00,–,–,–,–,< 50%,< 50%
CO[C@@H]1CCN(c2cc(Nc3cc(N)n4ncc(C(N)=O)c4n3)cc(C)n2)C1 [I-30],8.00 to 9.00,–,–,–,–,< 50%,< 50%
Cc1cc(Nc2cc(N)n3ncc(C(N)=O)c3n2)c(=O)n(-c2cnn(C)c2)c1 [I-32],9.00 to 9.70,–,–,–,–,< 50%,< 50%
CCOc1ccc(-n2cccc(Nc3cc(N)n4ncc(C(N)=O)c4n3)c2=O)nn1 [I-33],9.00 to 9.70,–,–,–,–,< 50%,< 50%
Cc1cc(Nc2cc(N)n3ncc(C(N)=O)c3n2)c(=O)n(-c2ccn(C)n2)c1 [I-34],9.00 to 9.70,–,–,–,–,< 50%,< 50%
CNc1cc(Nc2cccn(-c3cccc(C(C)(C)O)n3)c2=O)nc2c(C(N)=O)cnn12 [I-37],> 9.70,–,–,–,–,< 50%,< 50%
CN(C)C(=O)c1cnc(-n2cccc(Nc3cc(N)n4ncc(C(N)=O)c4n3)c2=O)cn1 [I-38],9.00 to 9.70,–,–,–,–,< 50%,< 50%
"CNc1cc(-c2ccn(-c3ccccc3)n2)nc2c(C(N)=O)cnn12 [I-39, 7-(methylamino)-5-(1-phenyl-1H-pyrazol-3-yl)pyrazolo[1,5-a]pyrimidine-3-carboxamide]",8.00 to 9.00,–,–,–,–,< 50%,< 50%
CNc1cc(Nc2cc(Cl)cn(C3CNC3)c2=O)nc2c(C(N)=O)cnn12 [I-40],9.00 to 9.70,–,–,–,–,< 50%,< 50%
CC(C)(O)c1cccc(-n2cccc(Nc3cc(N)n4ncc(C(N)=O)c4n3)c2=O)n1 [I-41],8.00 to 9.00,–,–,–,–,< 50%,< 50%
Cc1nccc(-n2cccc(Nc3cc(N)n4ncc(C(N)=O)c4n3)c2=O)n1 [I-42],8.00 to 9.00,–,–,–,–,< 50%,< 50%
"CNc1cc(Nc2cccn(-c3ccon3)c2=O)nc2c(C(N)=O)cnn12 [I-43, 5-((1-(isoxazol-3-yl)-2-oxo-1,2-dihydropyridin-3-yl)amino)-7-(methylamino)pyrazolo[1,5-a]pyrimidine-3-carboxamide]",> 9.70,–,–,–,–,< 50%,< 50%
CNc1cc(-c2cnn(-c3ccccc3)c2)nc2c(C(N)=O)cnn12 [I-44],9.00 to 9.70,–,–,–,–,< 50%,< 50%
CNc1cc(Nc2cccn(-c3ccc(C(=O)N4CCCC4)cn3)c2=O)nc2c(C(N)=O)cnn12 [I-45],> 9.70,–,–,–,–,< 50%,< 50%
CNc1cc(Nc2cccn(-c3cc(C)on3)c2=O)nc2c(C(N)=O)cnn12 [I-46],> 9.70,–,–,–,–,< 50%,< 50%
CNc1cc(Nc2cccn(-c3ccc(F)cn3)c2=O)nc2c(C(N)=O)cnn12 [I-48],9.00 to 9.70,–,–,–,–,< 50%,< 50%
CCn1cc(Cl)cc(Nc2cc(N)n3ncc(C(N)=O)c3n2)c1=O [I-49],9.00 to 9.70,–,–,–,–,< 50%,< 50%
NC(=O)c1cnn2c(N)cc(Nc3cccn([C@H]4CC[C@H](O)CC4)c3=O)nc12 [I-50],9.00 to 9.70,–,–,–,–,< 50%,< 50%
CNc1cc(Nc2cccn(-c3ccnc(C)n3)c2=O)nc2c(C(N)=O)cnn12 [I-51],9.00 to 9.70,–,–,–,–,< 50%,< 50%
NC(=O)c1cnn2c(N)cc(Nc3cccn(-c4ccc(F)cn4)c3=O)nc12 [I-52],9.00 to 9.70,–,–,–,–,< 50%,< 50%
